Assay results taken from patent US20260265305A1, “POLYPEPTIDE DERIVATIVE FOR ORAL DELIVERY” (Hangzhou Sciwind Biosciences Co., Ltd., priority 2023, published 2026).
Like-named read-outs stand apart in the source and are kept apart here. Numbered stars: 1 amine (or outer) side, 2 acyl side, 3 side chain; on linkers, the order of the positions; unused ones are H or OH. Peptide text beside a SMILES is read from it. * marks the point of attachment. C20 diacid = O=C(O)CCCCCCCCCCCCCCCCCCC(=O)*; γGlu = O=C(O)[C@H](CCC(=O)[*:2])N[*:1]; βAsp = O=C(O)[C@H](CC(=O)[*:2])N[*:1]; Trx = NC[C@H]1CC[C@H](C(=O)O)CC1; AEEA = NCCOCCOCC(=O)O; Inp = O=C(O)C1CCNCC1

What was measured:
amylin receptor (hAMY3R) = molecular target: T1, amylin receptor (hAMY3R) (Homo sapiens, UniProt O60896+P30988); assay: Amylin receptor agonism testing, CRE-luciferase assay in stably transfected CHO-K1/Ga15/AMY3 cells; type: cell-based; settings: for Fold change in activity against hAMY3R: relative to D1 as benchmark
T1 construct: host or cells: CHO-K1/Ga15/AMY3 cells, further stably transfected with a CRE-luciferase plasmid
T1 sequence (P30988 25-474): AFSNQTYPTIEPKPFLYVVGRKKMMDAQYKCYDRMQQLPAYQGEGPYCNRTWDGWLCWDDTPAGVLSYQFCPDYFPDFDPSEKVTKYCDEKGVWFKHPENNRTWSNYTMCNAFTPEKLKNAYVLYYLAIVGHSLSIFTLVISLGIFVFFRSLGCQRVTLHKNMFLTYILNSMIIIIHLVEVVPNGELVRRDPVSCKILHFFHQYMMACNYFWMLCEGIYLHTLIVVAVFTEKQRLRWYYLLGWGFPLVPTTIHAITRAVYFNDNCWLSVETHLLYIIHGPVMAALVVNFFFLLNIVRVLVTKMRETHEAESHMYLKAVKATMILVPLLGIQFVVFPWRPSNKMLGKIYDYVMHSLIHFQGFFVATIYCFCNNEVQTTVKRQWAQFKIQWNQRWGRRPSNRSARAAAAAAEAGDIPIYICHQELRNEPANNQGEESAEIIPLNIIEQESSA
T1 sequence (O60896 24-148): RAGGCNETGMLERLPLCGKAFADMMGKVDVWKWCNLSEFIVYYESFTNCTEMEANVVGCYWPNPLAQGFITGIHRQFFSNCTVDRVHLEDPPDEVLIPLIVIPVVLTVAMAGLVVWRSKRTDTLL

[1] = molecular target: T2, calcitonin receptor (hCTR) (Homo sapiens, UniProt P30988); assay: Calcitonin receptor agonism, CRE-luciferase assay in stably transfected CHO-K1/CALCR/Ga15 cells; type: cell-based; settings: for Fold change in activity against hCTR: relative to D1 as benchmark
T2 construct: host or cells: CHO-K1/CALCR/Ga15 cells, further stably transfected with a CRE-luciferase plasmid
T2 sequence (P30988 25-474): T1 sequence (P30988 25-474)
Description: Using the standard protocol, CHO-K1/CALCR/Ga15 cells (purchased from GenScript, with the calcitonin receptor constructed already) were transfected with a plasmid containing a luciferase expression cassette driven by multiple copies of cAMP response elements (CREs). The cells were cultured in an F12 medium containing 200 ug/mL Zeocin, 2 ug/mL puromycin, and 100 ug/mL hygromycin to afford a stably transfected calcitonin receptor/CRE-luc cell line.
To each well of a white 96-well plate was added 50 μL of the tested sample solution at a respective concentration.
The stably transfected calcitonin receptor/CRE-luc CHO cells were resuspended in the growth medium at a certain density, and 50 μL of the cell suspension was added at a density of about 20,000 cells per well to the white 96-well plate containing the tested sample solution. After incubation of 24 hours at 37° C. and 5% CO2, 100 μL of a Luciferase substrate was added to each well, incubated for 3 minutes, and finally was tested for luminescence on SpectraMax L (Molecular Devices) with the software SoftMax Pro 7.0.3 GxP. A standard curve was plotted using the fluorescent intensities for calculation of EC50.

[2] = Heat accelerated stability assay of polypeptide solutions (40° C., pH about 7.4), reversed phase chromatography; type: physicochemical; settings: 40° C.; for Concentration change on 7 d / Concentration change on 26 d: pH about 7.4, 1 mg/mL; for Concentration change on 7 d / Purity change on 7 d: Day 7; for Concentration change on 26 d / Purity change on 26 d: Day 26; for Purity change on 7 d / Purity change on 26 d: reversed phase chromatography 214 nm; for Purity change on 7 d: purity on 7 d − purity on 0 d; for Purity change on 26 d: purity on 26 d − purity on 0 d
How it was run: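 Polypeptide derivative lyophilisate (1 mg/mL) with sodium dihydrogen phosphate (1.42 mg/mL) in water, pH about 7.4, sterile-filtered, vialed and held at 40° C; sampled on days 7 and 26. After centrifugation, concentration and purity (target/total peak area) by C18 RP-HPLC, TFA/ACN gradient, 280 and 214 nm.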

[3] = Animal study: weight change and accumulated food intake in SD rats after subcutaneous dosing; type: in vivo, SD (Sprague Dawley) rats; settings: 10 nmol/kg subcutaneous; for effect on body weight of SD rats: FIGS. 1 and 3; for effect on accumulated food intake of SD rats: FIGS. 2 and 4
Description: SD (Sprague Dawley) rats weighing 200-250 g were used for this study. The rats were received at least 10-14 days before the study began such that they could accommodate to the experimental environment. After arrival, they were exposed to a reversed light/dark cycle (i.e., lights switched off in daytime and on in nighttime) for two weeks and were individually housed for the first week so as to ensure high data accuracy and test sensitivity. Throughout the acclimation and experiment period, the rats had free access to food and water. 5-8 rats were assigned to each testing group for the derivatives and were subcutaneously administered the derivatives at a dose of 10 nmol/kg or a vehicle (20 mM phosphate buffer, PB, pH 7.0), and the dosing timepoint was recorded for each group. After dosing, the rats were put back into cages where they were housed and could have access to food and water. Food consumption and weight change of the rats were recorded online or manually every 24 hours. Percent of weight change=(BWTn−BWT0)/BWT0*100%, wherein BW represented the value of body weight, and T0 and Tn represented the time point of dosing and n hours post dose respectively. Dots in the figures were represented utilizing mean±standard error of the mean (SEM).

[4] = incubation of 24 hours, Table 3, read-out: EC50, activity against the amylin receptor in cells
[5] = incubation of 24 hours, Table 4, read-out: EC50, activity against the calcitonin receptor in cells

| EC50 (amylin receptor (hAMY3R); [4]) [nM] | Fold change in activity against hAMY3R (amylin receptor (hAMY3R)) | EC50 [1, 5] [nM] | Fold change in activity against hCTR [1] | Concentration change on 26 d [2] | Purity change on 7 d [2] | Purity change on 26 d [2] | EC50 (amylin receptor (hAMY3R); Table 5 integrated analysis, read-out: hAMY3R EC50) [nM] | EC50 ([1]; Table 5 integrated analysis, read-out: hCTR EC50) [nM] | Compound | Concentration change on 7 d [2] | effect on body weight of SD rats [3] | effect on accumulated food intake of SD rats [3] |
| --- | --- | --- | --- | --- | --- | --- | --- | --- | --- | --- | --- | --- |
| 0.017 | 2.118 | 0.138 | 0.623 | −2.645% | −2.45% | −5.24% |  |  | CC(C)C[C@H](NC(=O)[C@H](CCCNC(=N)N)NC(=O)CNC(=O)[C@H](CC(C)C)NC(=O)[C@@H](NC(=O)[C@H](C)NC(=O)[C@@H](NC(=O)[C@H](CO)NC(=O)[C@H](CC(C)C)NC(=O)[C@H](CCC(N)=O)NC(=O)[C@H](CO)NC(=O)[C@H](C)NC(=O)COCCOCCNC(=O)COCCOCCNC(=O)C[C@H](NC(=O)CCCCCCCCCCCCCCCCCCC(=O)O)C(=O)O)[C@@H](C)O)C(C)C)C(=O)N[C@@H](CO)C(=O)N[C@@H](CC(=O)O)C(=O)N[C@@H](CCC(=O)O)C(=O)N[C@@H](CC(C)C)C(=O)N[C@@H](Cc1c[nH]cn1)C(=O)N[C@@H](CCCNC(=N)N)C(=O)N[C@@H](CC(C)C)C(=O)N[C@@H](CCC(N)=O)C(=O)N[C@@H](CC(=O)O)C(=O)N[C@@H](Cc1ccc(O)cc1)C(=O)N1CCC[C@H]1C(=O)N[C@@H](CCCNC(=N)N)C(=O)N[C@H](C(=O)N[C@@H](CC(=O)O)C(=O)N[C@H](C(=O)NCC(=O)N[C@@H](CO)C(=O)NCC(=O)N[C@@H](CO)C(=O)N1CCC[C@H]1C(N)=O)C(C)C)[C@@H](C)O [M25] ({C20 diacid-βAsp-AEEA-AEEA}-ASQLSTAVLGRLSDELHRLQDYPRTDVGSGSP-NH2) | −1.222% | apparently further reduced | apparently further reduced |
|  | 2.25 | 0.069 | 1.246 | −1.148% | No change | nearly no noticeable change in purity | 0.016 |  | CC(C)C[C@H](NC(=O)[C@H](CCCNC(=N)N)NC(=O)CNC(=O)[C@H](CC(C)C)NC(=O)[C@@H](NC(=O)[C@H](C)NC(=O)[C@@H](NC(=O)[C@H](CO)NC(=O)[C@H](CC(C)C)NC(=O)[C@H](CCC(N)=O)NC(=O)[C@H](CO)NC(=O)[C@H](C)NC(=O)COCCOCCNC(=O)COCCOCCNC(=O)CC[C@H](NC(=O)CCCCCCCCCCCCCCCCCCC(=O)O)C(=O)O)[C@@H](C)O)C(C)C)C(=O)N[C@@H](CO)C(=O)N[C@@H](CC(=O)O)C(=O)N[C@@H](CCC(=O)O)C(=O)N[C@@H](CC(C)C)C(=O)N[C@@H](Cc1c[nH]cn1)C(=O)N[C@@H](CCCNC(=N)N)C(=O)N[C@@H](CC(C)C)C(=O)N[C@@H](CCC(N)=O)C(=O)N[C@@H](CC(=O)O)C(=O)N[C@@H](Cc1ccc(O)cc1)C(=O)N1CCC[C@H]1C(=O)N[C@@H](CCCNC(=N)N)C(=O)N[C@H](C(=O)N[C@@H](CC(=O)O)C(=O)N[C@H](C(=O)NCC(=O)N[C@@H](CO)C(=O)NCC(=O)N[C@@H](CO)C(=O)N1CCC[C@H]1C(N)=O)C(C)C)[C@@H](C)O [M18] ({C20 diacid-γGlu-AEEA-AEEA}-ASQLSTAVLGRLSDELHRLQDYPRTDVGSGSP-NH2) | No change (concentration change of less than 1% (denoted as “no change”)) | apparently further reduced | apparently further reduced |
|  | 9.000 |  | 0.161 | −2.286% | No change | −1.27% |  |  | CC(C)C[C@H](NC(=O)[C@H](CCCNC(=N)N)NC(=O)CNC(=O)[C@H](CC(C)C)NC(=O)[C@@H](NC(=O)[C@H](C)NC(=O)[C@@H](NC(=O)[C@H](CO)NC(=O)[C@H](CC(C)C)NC(=O)[C@H](CCC(N)=O)NC(=O)[C@H](CO)NC(=O)[C@H](C)NC(=O)COCCOCCNC(=O)COCCOCCNC(=O)[C@H]1CC[C@H](CNC(=O)CCCCCCCCCCCCCCCCCCC(=O)O)CC1)[C@@H](C)O)C(C)C)C(=O)N[C@@H](CO)C(=O)N[C@@H](CC(=O)O)C(=O)N[C@@H](CCC(=O)O)C(=O)N[C@@H](CC(C)C)C(=O)N[C@@H](Cc1c[nH]cn1)C(=O)N[C@@H](CCCNC(=N)N)C(=O)N[C@@H](CC(C)C)C(=O)N[C@@H](CCC(N)=O)C(=O)N[C@@H](CC(=O)O)C(=O)N[C@@H](Cc1ccc(O)cc1)C(=O)N1CCC[C@H]1C(=O)N[C@@H](CCCNC(=N)N)C(=O)N[C@H](C(=O)N[C@@H](CC(=O)O)C(=O)N[C@H](C(=O)NCC(=O)N[C@@H](CO)C(=O)NCC(=O)N[C@@H](CO)C(=O)N1CCC[C@H]1C(N)=O)C(C)C)[C@@H](C)O [M27] ({C20 diacid-Trx-AEEA-AEEA}-ASQLSTAVLGRLSDELHRLQDYPRTDVGSGSP-NH2) |  | apparently further reduced | apparently further reduced |

| Compound | EC50 (amylin receptor (hAMY3R); [4]) [nM] | Fold change in activity against hAMY3R (amylin receptor (hAMY3R)) | EC50 [1, 5] [nM] | Fold change in activity against hCTR [1] | Concentration change on 26 d [2] | Purity change on 7 d [2] | Purity change on 26 d [2] | EC50 (amylin receptor (hAMY3R); Table 5 integrated analysis, read-out: hAMY3R EC50) [nM] | EC50 ([1]; Table 5 integrated analysis, read-out: hCTR EC50) [nM] | Concentration change on 7 d [2] | effect on body weight of SD rats [3] | effect on accumulated food intake of SD rats [3] |
| --- | --- | --- | --- | --- | --- | --- | --- | --- | --- | --- | --- | --- |
| CC(C)C[C@H](NC(=O)[C@H](CCCNC(=N)N)NC(=O)CNC(=O)[C@H](CC(C)C)NC(=O)[C@@H](NC(=O)[C@H](C)NC(=O)[C@@H](NC(=O)[C@H](CO)NC(=O)[C@H](CC(C)C)NC(=O)[C@H](CCC(N)=O)NC(=O)[C@H](CO)NC(=O)[C@H](C)NC(=O)COCCOCCNC(=O)COCCOCCNC(=O)C1CCN(C(=O)CCCCCCCCCCCCCCCCCCC(=O)O)CC1)[C@@H](C)O)C(C)C)C(=O)N[C@@H](CO)C(=O)N[C@@H](CC(=O)O)C(=O)N[C@@H](CCC(=O)O)C(=O)N[C@@H](CC(C)C)C(=O)N[C@@H](Cc1c[nH]cn1)C(=O)N[C@@H](CCCNC(=N)N)C(=O)N[C@@H](CC(C)C)C(=O)N[C@@H](CCC(N)=O)C(=O)N[C@@H](CC(=O)O)C(=O)N[C@@H](Cc1ccc(O)cc1)C(=O)N1CCC[C@H]1C(=O)N[C@@H](CCCNC(=N)N)C(=O)N[C@H](C(=O)N[C@@H](CC(=O)O)C(=O)N[C@H](C(=O)NCC(=O)N[C@@H](CO)C(=O)NCC(=O)N[C@@H](CO)C(=O)N1CCC[C@H]1C(N)=O)C(C)C)[C@@H](C)O [M29] ({C20 diacid-Inp-AEEA-AEEA}-ASQLSTAVLGRLSDELHRLQDYPRTDVGSGSP-NH2) | 0.006 | 6.000 |  | 0.551 | No change (concentration change of less than 1% (denoted as “no change”)) | No change | −1.2% |  | 0.156 |  | apparently further reduced | apparently further reduced |
